Laboratory results as given in paper PMC6868041, “Evans Blue Inhibits HBV Replication Through a Dual Antiviral Mechanism by Targeting Virus Binding and Capsid Assembly” (Frontiers in Microbiology, 2019).

Key:
BSA = molecular target: T1, BSA (Bos taurus, UniProt P02769); experiment: biolayer interferometry (Octet RED); assay type: binding; conditions: negative control protein, biotinylated BSA on sensor; paper states no interaction; unreliable
T1 construct: gene ALB; commercial serum albumin, biotinylated, control protein
T1 sequence (P02769 25-607): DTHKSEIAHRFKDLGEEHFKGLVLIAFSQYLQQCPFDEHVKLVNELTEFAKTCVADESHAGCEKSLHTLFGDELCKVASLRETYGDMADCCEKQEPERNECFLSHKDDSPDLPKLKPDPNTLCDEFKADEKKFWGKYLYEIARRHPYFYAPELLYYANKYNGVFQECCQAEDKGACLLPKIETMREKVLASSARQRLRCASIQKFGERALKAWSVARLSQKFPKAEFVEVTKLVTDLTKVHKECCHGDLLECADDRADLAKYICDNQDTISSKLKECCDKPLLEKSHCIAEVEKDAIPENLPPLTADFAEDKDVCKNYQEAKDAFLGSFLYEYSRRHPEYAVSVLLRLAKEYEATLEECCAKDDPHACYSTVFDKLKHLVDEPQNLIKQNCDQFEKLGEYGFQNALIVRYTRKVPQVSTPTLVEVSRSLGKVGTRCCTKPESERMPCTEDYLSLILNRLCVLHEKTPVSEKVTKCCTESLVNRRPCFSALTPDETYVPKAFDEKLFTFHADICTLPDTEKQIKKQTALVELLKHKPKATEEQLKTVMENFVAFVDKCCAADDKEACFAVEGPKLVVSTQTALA

[1] = molecular target: T2, NTCP (recombinant His-tagged human NTCP; hNTCP) (Homo sapiens, UniProt Q14973); experiment: biolayer interferometry (Octet RED); assay type: binding; parameters: gene SLC10A1; full-length from pEnter-hNTCP, His-tag, expressed in and purified from HEK293T, biotinylated for Octet
T2 sequence (Q14973 1-349): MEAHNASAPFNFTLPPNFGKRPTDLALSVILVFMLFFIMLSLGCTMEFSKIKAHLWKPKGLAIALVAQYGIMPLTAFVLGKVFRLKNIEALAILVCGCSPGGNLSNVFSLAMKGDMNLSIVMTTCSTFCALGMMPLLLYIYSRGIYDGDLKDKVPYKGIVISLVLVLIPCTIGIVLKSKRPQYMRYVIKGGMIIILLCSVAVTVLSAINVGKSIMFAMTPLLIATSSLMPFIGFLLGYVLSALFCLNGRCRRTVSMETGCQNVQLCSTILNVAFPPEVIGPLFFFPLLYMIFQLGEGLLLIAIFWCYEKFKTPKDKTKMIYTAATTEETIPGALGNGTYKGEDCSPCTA

[2] = molecular target: T2, NTCP (recombinant His-tagged human NTCP; hNTCP); experiment: inhibition of FITC-preS1-myr binding to Huh7D-hNTCP cells, high-content imaging; assay type: cell-based; parameters: gene SLC10A1
Description: inhibition of FITC-preS1-myr binding to Huh7D-hNTCP cells, high-content imaging on NTCP (recombinant His-tagged human NTCP; hNTCP) | inhibited the binding of FITC-preS1 to cells in a concentration-dependent manner with an IC50

**Q.** For `Cc1cc(-c2ccc(/N=N/c3ccc4c(S(=O)(=O)O)cc(S(=O)(=O)O)c(N)c4c3O)c(C)c2)ccc1/N=N/c1ccc2c(S(=O)(=O)O)cc(S(=O)(=O)O)c(N)c2c1O` [Evans blue], which KD (BSA) is on record?
**A.** The KD was 468 µM.

**Q.** What about the Kd [1] of the same molecule?
**A.** The Kd was 0.0882 µM.

**Q.** What about the IC50 [2] of the same molecule?
**A.** The IC50 was about 5 µM.
